Residues, ends and D or L forms follow the SMILES beside them.
Tests used:
[1] = molecular target: T1, Solute carrier organic anion transporter family member 1B1 (Homo sapiens, UniProt Q9Y6L6); details: chinese hamster, cho, 10 µM
T1 sequence (Q9Y6L6 whole entry): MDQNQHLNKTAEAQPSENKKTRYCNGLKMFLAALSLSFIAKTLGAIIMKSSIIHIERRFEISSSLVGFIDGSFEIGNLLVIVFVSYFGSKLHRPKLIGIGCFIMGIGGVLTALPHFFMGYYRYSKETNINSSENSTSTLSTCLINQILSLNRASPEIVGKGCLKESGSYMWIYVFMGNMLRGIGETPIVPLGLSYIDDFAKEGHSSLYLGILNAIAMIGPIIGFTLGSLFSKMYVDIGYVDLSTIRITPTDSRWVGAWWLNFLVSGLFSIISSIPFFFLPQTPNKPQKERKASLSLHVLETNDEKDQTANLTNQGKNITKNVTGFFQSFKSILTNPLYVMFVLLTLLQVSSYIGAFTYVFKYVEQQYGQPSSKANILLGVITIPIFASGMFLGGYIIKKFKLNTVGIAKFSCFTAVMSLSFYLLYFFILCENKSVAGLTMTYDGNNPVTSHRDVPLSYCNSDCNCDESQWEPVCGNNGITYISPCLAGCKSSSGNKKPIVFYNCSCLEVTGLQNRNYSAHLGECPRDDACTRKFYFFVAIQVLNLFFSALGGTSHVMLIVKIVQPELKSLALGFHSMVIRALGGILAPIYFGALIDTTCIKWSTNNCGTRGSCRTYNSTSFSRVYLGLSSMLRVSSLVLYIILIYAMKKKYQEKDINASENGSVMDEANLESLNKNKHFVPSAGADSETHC

[2] = molecular target: T2, Solute carrier organic anion transporter family member 1B3 (Homo sapiens, UniProt Q9NPD5); details: chinese hamster, cho, 10 µM
T2 sequence (Q9NPD5 whole entry): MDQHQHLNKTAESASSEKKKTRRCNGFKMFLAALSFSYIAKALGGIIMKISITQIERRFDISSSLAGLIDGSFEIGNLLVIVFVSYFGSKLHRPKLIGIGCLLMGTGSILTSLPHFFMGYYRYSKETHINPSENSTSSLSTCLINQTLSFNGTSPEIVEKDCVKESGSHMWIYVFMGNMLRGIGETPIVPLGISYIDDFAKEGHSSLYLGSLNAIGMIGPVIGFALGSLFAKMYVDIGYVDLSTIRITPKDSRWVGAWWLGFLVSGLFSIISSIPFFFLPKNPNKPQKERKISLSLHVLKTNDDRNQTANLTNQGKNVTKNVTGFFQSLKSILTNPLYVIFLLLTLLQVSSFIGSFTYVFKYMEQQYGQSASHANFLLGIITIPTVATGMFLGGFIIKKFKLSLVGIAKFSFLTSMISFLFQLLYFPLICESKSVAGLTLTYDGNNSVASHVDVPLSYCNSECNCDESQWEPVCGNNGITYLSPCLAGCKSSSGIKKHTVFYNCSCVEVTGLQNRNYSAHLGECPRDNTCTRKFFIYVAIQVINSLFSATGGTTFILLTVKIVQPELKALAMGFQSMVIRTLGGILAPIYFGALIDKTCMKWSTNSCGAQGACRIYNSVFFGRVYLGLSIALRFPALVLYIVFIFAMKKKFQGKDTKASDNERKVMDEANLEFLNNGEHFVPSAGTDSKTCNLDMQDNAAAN

| SMILES | residual activity [1] [%] | residual activity [2] [%] |
| --- | --- | --- |
| COc1ccc2c(=O)cc(-c3ccccc3OC)oc2c1 [7,2'-DIMETHOXYFLAVONE] | 95.82 | 110.5 |
| CC(C)CCC[C@@H](C)[C@H]1CC[C@H]2[C@@H]3CC=C4CC(=O)CC[C@]4(C)[C@H]3CC[C@]12C [CHOLEST-5-EN-3-ONE] | 119.6796 | 103.5 |
| COc1ccc(-c2oc3ccccc3c(=O)c2O)cc1OC [3-HYDROXY-3',4'-DIMETHOXYFLAVONE] | 119.6 | 106.3 |
| CC(=O)N[C@@H](CC(=O)N[C@@H](CCC(=O)O)C(=O)O)C(=O)O [SPAGLUMIC ACID] | 87.3 | 87.85 |
| O=C(O)CN(CC(=O)O)Cc1cc2c(cc1O)Oc1cc(O)c(CN(CC(=O)O)CC(=O)O)cc1C21OC(=O)c2ccccc21 [OFTASCEINE] | 105.6 | 121.3 |
| COc1cc2c(cc1OC)[C@@H]1C(=O)c3ccc4c(c3O[C@@H]1CO2)C=CC(C)(C)O4 [DEGUELIN] | 99.89 | 75.69 |
| NCCC(=O)c1ccccc1N [KYNURAMINE] | 113.9 | 89.22 |
| CN(C)CC[C@@H](c1ccc(Cl)cc1)c1ccccn1.O=C(O)/C=C\C(=O)O [DEXCHLORPHENIRAMINE MALEATE] | 117.7 | 103.6 |
| Nc1ccccc1C(=O)CC(N)C(=O)O (stereo unspecified) [KYNURENINE] | 58.07 | 67.15 |
| Cc1ccc(O)cc1 [p-CRESOL] | 115 | 101.1 |
| CNC(=O)Oc1ccccc1OC(C)C [PROPOXUR] | 104 | 109.6 |
| CC1=C(/C=C/C(C)=C/C=C/C(C)=C/C=C/C=C(C)/C=C/C=C(C)/C=C/C(=O)[C@]2(C)C[C@@H](O)CC2(C)C)C(C)(C)C[C@H](O)C1 [CAPSANTHIN] | 79.45 | 102.1 |
| CC(=O)O[C@H]1C[C@H](O[C@H]2[C@@H](O)C[C@H](O[C@H]3[C@@H](O)C[C@H](O[C@H]4CC[C@@]5(C)[C@H](CC[C@@H]6[C@@H]5C[C@@H](O)[C@]5(C)[C@@H](C7=CC(=O)OC7)CC[C@]65O)C4)O[C@@H]3C)O[C@@H]2C)O[C@H](C)[C@H]1O[C@@H]1O[C@H](CO)[C@@H](O)[C@H](O)[C@H]1O [LANATOSIDE C] | 102.5 | 86.15 |
| C[C@](N)(Cc1ccc(O)cc1)C(=O)O [METYROSINE] | 64.38 | 84.41 |
| CC(C)C[C@H](NC(=O)CN)C(=O)N[C@@H](Cc1ccccc1)C(=O)O (H-Gly-Leu-Phe-OH) | 118.4 | 114.9 |
| CCOC(=O)c1c(C)cc(OC)cc1O [ETHYL EVERNINATE] | 111.1 | 102.6 |
| CC(=O)O[C@H]1CC[C@]2(C)[C@H]3CC=C4[C@@H]5CC(C)(C)CC[C@]5(C)CC[C@@]4(C)[C@]3(C)CC[C@H]2C1(C)C [beta-AMYRIN ACETATE] | 113 | 110 |
| CC(C)=CCC[C@@H](C)[C@H]1CC[C@@]2(C)C3=C(CC[C@]12C)[C@@]1(C)CC[C@H](O)C(C)(C)[C@@H]1CC3 [LANOSTEROL] | 53.97 | 90.91 |
| C[C@@H]1CC[C@@]2(OC1)O[C@H]1[C@@H](O)[C@H]3[C@@H]4CC[C@H]5C[C@@H](O[C@@H]6O[C@H](CO)[C@H](O[C@@H]7O[C@H](CO)C(O)[C@H](O[C@@H]8OC[C@@H](O)[C@H](O)[C@H]8O)[C@H]7O[C@@H]7O[C@H](CO)[C@H](O)[C@H](O[C@@H]8O[C@H](CO)[C@@H](O)[C@H](O)[C@H]8O)[C@H]7O)[C@H](O)[C@H]6O)[C@H](O)C[C@]5(C)[C@H]4CC[C@]3(C)[C@H]1[C@@H]2C (stereo partly specified) [DIGITONIN] | 76.09 | 98.34 |

| SMILES | residual activity [1] [%] | residual activity [2] [%] |
| --- | --- | --- |
| CCn1cc(C(=O)O)c(=O)c2cc3c(cc21)OCO3 [OXOLINIC ACID] | 55.65 | 87.39 |
| Cl.Clc1ccc(C(OCCN2CCCCC2)c2ccccc2)cc1 (stereo unspecified) [CLOPERASTINE HYDROCLORIDE] | 53.44 | 89.01 |
| CC(=O)OC[C@@]1(O)C[C@@]23CC[C@@H]4c5ccoc5CC[C@@]4(C)[C@@H]2CC[C@@H]1C3 [CAFESTOL ACETATE] | 108.6 | 89.68 |
| CCCCC[C@H](CC(=O)O)C(=O)O [NONIC ACID] | 128.4 | 117 |
| COc1ccc(CCC(=O)c2c(O)cc(O[C@@H]3O[C@H](CO)[C@@H](O)[C@H](O)[C@H]3O[C@@H]3O[C@@H](C)[C@H](O)[C@@H](O)[C@H]3O)cc2O)cc1O [NEOHESPERIDIN DIHYDROCHALCONE] | 53.61 | 198.2 |
| CCNc1nc(Cl)nc(NC(C)C)n1 [ATRAZINE] | 133.8 | 96.21 |
| S=C=NCc1ccccc1 [BENZYL ISOTHIOCYANATE] | 170.7 | 101.9 |
| C[C@]12CC[C@@H](OS(=O)(=O)[O-])C[C@@H]1CC[C@@H]1[C@@H]2CC[C@]2(C)C(=O)CC[C@@H]12.[Na+] | 27.84 | 40.78 |
| COC(=O)C[C@H]1C(C)(C)[C@@H](O)[C@@H]2CC3=C4CC(O)O[C@@H](c5ccoc5)[C@]4(C)CCC3[C@@]1(C)C2=O (stereo partly drawn) [3,16-DIDEOXYMEXICANOLIDE-3beta-DIOL] | 51.44 | 53.76 |
| Cl.N[C@H]1C(O)O[C@H](CO)[C@@H](O)[C@@H]1O (stereo partly specified) [GLUCOSAMINE HYDROCHLORIDE] | 60.72 | 87.62 |
| CCN(CC)CCOC(=O)c1ccc(N)cc1.Cl [PROCAINE HYDROCHLORIDE] | 104.1 | 104.2 |
| COc1cc([S+](C)[O-])ccc1-c1nc2ncccc2[nH]1 (stereo unspecified) [SULMAZOLE] | 107.4 | 116.5 |
| COC(=O)[C@@]1(C)CCC[C@]2(C)c3ccc(O)c(C(C)C)c3CC[C@@H]12 | 90.51 | 122.1 |
| Br.COc1ccc2c(c1)[C@]13CCCC[C@@H]1[C@H](C2)N(C)CC3.O [DEXTROMETHORPHAN HYDROBROMIDE] | 49.83 | 78.21 |
| COc1ccc(-c2cc(=O)c3c(O)cc(O[C@H]4O[C@H](CO[C@@H]5O[C@@H](C)[C@H](O)[C@@H](O)[C@H]5O)[C@@H](O)[C@H](O)[C@H]4O)cc3o2)cc1 [BUDDLEOFLAVONOLOSIDE] | 69.14 | 212.4 |
| CC(=O)OC(C)C[N+](C)(C)C.[Cl-] (stereo unspecified) [METHACHOLINE CHLORIDE] | 86.62 | 106.9 |
| COc1ccc2c(c1)[C@@]1(C)CCC(=O)C[C@@H]1CC2 [5alpha-12-METHOXY-4,4-BISNOR-8,11,13-PODOCARPATRIEN-3-ONE] | 131.2 | 89.3 |
| OCc1ccccc1O[C@@H]1O[C@H](CO)[C@@H](O)[C@H](O)[C@H]1O [SALICIN] | 85.64 | 97.32 |
| CCN(CC)CCOc1ccc(C(=C(Cl)c2ccccc2)c2ccccc2)cc1 [CLOMIPHENE] | 99.41 | 126.3 |

Reference: ChEMBL document CHEMBL3039007, “Structure-based identification of OATP1B1/3 inhibitors” (Mol Pharmacol, 2013)
